Data taken from ChEMBL document CHEMBL5247680, “Design, Synthesis, and Biological Activity of Thioguanine-Modified Pleuromutilin Derivatives” (ACS Med Chem Lett, 2023).
In brackets after ≈: the same amount, converted by molar mass.

Tests used:
[1] = test system: Staphylococcus aureus; assay: Antibacterial activity against Staphylococcus aureus ATCC 25923 assessed as bacterial growth inhibition incubated for 20 to 24 hrs by microbroth serial dilution assay; format: functional; settings: time 20-24 hrs
[2] = test system: Staphylococcus aureus; assay: Antibacterial activity against Methicillin-resistant Staphylococcus aureus ATCC 33591 assessed as bacterial growth inhibition incubated for 20 to 24 hrs by microbroth serial dilution assay; format: functional; settings: time 20-24 hrs
[3] = test system: Staphylococcus aureus; assay: Selectivity ratio of MBC for antibacterial activity against Staphylococcus aureus to MIC for antibacterial activity against Staphylococcus aureus; format: functional
[4] = test system: Staphylococcus aureus; assay: Antibacterial activity against Methicillin-resistant Staphylococcus aureus ATCC 43300 assessed as bacterial growth inhibition incubated for 20 to 24 hrs by microbroth serial dilution assay; format: functional; settings: time 20-24 hrs
[5] = test system: Staphylococcus aureus; assay: Antibacterial activity against Methicillin-sensitive Staphylococcus aureus ATCC 29213 assessed as bacterial growth inhibition incubated for 20 to 24 hrs by microbroth serial dilution assay
[6] = test system: Staphylococcus epidermidis; assay: Selectivity ratio of MBC for antibacterial activity against Methicillin-sensitive Staphylococcus epidermidis […] to MIC for antibacterial activity against Methicillin-sensitive Staphylococcus epidermidis […]; format: functional
[7] = test system: Staphylococcus aureus; assay: Selectivity ratio of MBC for antibacterial activity against Methicillin-sensitive Staphylococcus aureus ATCC 29213 to MIC for antibacterial activity against Methicillin-sensitive Staphylococcus aureus ATCC 29213
[8] = test system: Staphylococcus epidermidis; assay: Antibacterial activity against Methicillin-resistant Staphylococcus epidermidis ATCC 51625 assessed as bacterial growth inhibition incubated for 20 to 24 hrs by microbroth serial dilution assay; format: functional; settings: time 20-24 hrs
[9] = test system: Staphylococcus epidermidis; assay: Antibacterial activity against Methicillin-sensitive Staphylococcus epidermidis ATCC 12228 assessed as bacterial growth inhibition incubated for 20 to 24 hrs by microbroth serial dilution assay; format: functional; settings: time 20-24 hrs

| Compound | MIC [1] [µg/mL] | MIC [2] [µg/mL] | Ratio [3] | MIC [4] [µg/mL] | MIC [5] [µg/mL] | Ratio [6] | Ratio [7] | MIC [8] [µg/mL] | MIC [9] [µg/mL] |
| --- | --- | --- | --- | --- | --- | --- | --- | --- | --- |
| C=C[C@]1(C)C[C@@H](OC(=O)CSc2nc(N)nc3c2ncn3C(=O)Nc2ccccc2Cl)[C@@]2(C)C3C(=O)CC[C@@]3(CC[C@H]2C)[C@@H](C)[C@@H]1O (stereo partly specified) | 0.125 (≈ 0.183 µM) | 0.125 (≈ 0.183 µM) | >4 | 0.125 (≈ 0.183 µM) | 0.25 (≈ 0.367 µM) | >4 | 4 | 0.0625 (≈ 0.0917 µM) | 0.0078 (≈ 0.0114 µM) |
| C=C[C@]1(C)C[C@@H](OC(=O)CSc2nc(N)nc3c2ncn3C(=O)NCc2ccc(C)cc2)[C@@]2(C)C3C(=O)CC[C@@]3(CC[C@H]2C)[C@@H](C)[C@@H]1O (stereo partly specified) | 0.125 (≈ 0.185 µM) | 0.0625 (≈ 0.0926 µM) | >4 | 0.0625 (≈ 0.0926 µM) | 0.125 (≈ 0.185 µM) | >4 | 4 | 0.0625 (≈ 0.0926 µM) | < 0.0312 |
| C=C[C@]1(C)C[C@@H](OC(=O)CSc2nc(NC(=O)CNC3CCOCC3)nc3[nH]cnc23)[C@@]2(C)C3C(=O)CC[C@@]3(CC[C@H]2C)[C@@H](C)[C@@H]1O (stereo partly specified) | 0.5 (≈ 0.748 µM) | 0.5 (≈ 0.748 µM) | >4 | 16 (≈ 23.9 µM) | 8 (≈ 12 µM) | >4 | – | 1 (≈ 1.5 µM) | 2 (≈ 2.99 µM) |
| C=C[C@]1(C)C[C@@H](OC(=O)CSc2nc(N)nc3c2ncn3C(=O)OC)[C@@]2(C)C3C(=O)CC[C@@]3(CC[C@H]2C)[C@@H](C)[C@@H]1O (stereo partly specified) | 0.125 (≈ 0.213 µM) | 0.125 (≈ 0.213 µM) | >4 | 0.125 (≈ 0.213 µM) | 0.5 (≈ 0.854 µM) | >4 | – | 0.125 (≈ 0.213 µM) | 0.0625 (≈ 0.107 µM) |
| C=C[C@]1(C)C[C@@H](OC(=O)CSc2nc(N)nc3c2ncn3C(=O)CCc2ccccc2)[C@@]2(C)C3C(=O)CC[C@@]3(CC[C@H]2C)[C@@H](C)[C@@H]1O (stereo partly specified) | 0.25 (≈ 0.379 µM) | 0.125 (≈ 0.189 µM) | 4 | 0.125 (≈ 0.189 µM) | 0.125 (≈ 0.189 µM) | >4 | >4 | 0.125 (≈ 0.189 µM) | 0.0156 (≈ 0.0236 µM) |
| C=C[C@]1(C)C[C@@H](OC(=O)CSc2nc(N)nc3c2ncn3C(=O)NCc2cccc([N+](=O)[O-])c2)[C@@]2(C)C3C(=O)CC[C@@]3(CC[C@H]2C)[C@@H](C)[C@@H]1O (stereo partly specified) | 0.0625 (≈ 0.0885 µM) | 0.0312 (≈ 0.0443 µM) | >4 | 0.0625 (≈ 0.0885 µM) | 0.0625 (≈ 0.0885 µM) | >4 | 4 | 0.0625 (≈ 0.0885 µM) | < 0.0078 |
| C=C[C@]1(C)C[C@@H](OC(=O)CSc2nc(N)nc3c2ncn3C(=O)c2ccc([N+](=O)[O-])cc2)[C@@]2(C)C3C(=O)CC[C@@]3(CC[C@H]2C)[C@@H](C)[C@@H]1O (stereo partly specified) | 0.125 (≈ 0.185 µM) | 0.125 (≈ 0.185 µM) | >4 | 0.0625 (≈ 0.0923 µM) | 0.0625 (≈ 0.0923 µM) | >4 | – | 0.0625 (≈ 0.0923 µM) | < 0.0078 |
| C=C[C@]1(C)C[C@@H](OC(=O)CSc2nc(NC(=O)CN3CCNCC3)nc3[nH]cnc23)[C@@]2(C)C3C(=O)CC[C@@]3(CC[C@H]2C)[C@@H](C)[C@@H]1O (stereo partly specified) | 32 (≈ 48.9 µM) | 32 (≈ 48.9 µM) | >4 | 64 (≈ 97.9 µM) | 32 (≈ 48.9 µM) | >4 | – | 16 (≈ 24.5 µM) | 4 (≈ 6.12 µM) |
| C=C[C@]1(C)C[C@@H](OC(=O)CSc2nc(NC(=O)CCl)nc3[nH]cnc23)[C@@]2(C)C3C(=O)CC[C@@]3(CC[C@H]2C)[C@@H](C)[C@@H]1O (stereo partly specified) | 0.5 (≈ 0.828 µM) | 0.5 (≈ 0.828 µM) | >4 | 0.5 (≈ 0.828 µM) | 0.5 (≈ 0.828 µM) | >4 | – | 0.25 (≈ 0.414 µM) | 0.0156 (≈ 0.0258 µM) |
| C=C[C@]1(C)C[C@@H](OC(=O)CSc2nc(N)nc3c2ncn3C(=O)NCc2ccc([N+](=O)[O-])cc2)[C@@]2(C)C3C(=O)CC[C@@]3(CC[C@H]2C)[C@@H](C)[C@@H]1O (stereo partly specified) | 0.125 (≈ 0.177 µM) | 0.25 (≈ 0.354 µM) | >4 | 0.25 (≈ 0.354 µM) | 0.0625 (≈ 0.0885 µM) | >4 | – | 0.0625 (≈ 0.0885 µM) | < 0.0078 |
| C=C[C@]1(C)C[C@@H](OC(=O)CSc2nc(N)nc3c2ncn3C(=O)c2ccc(C)cc2)[C@@]2(C)C3C(=O)CC[C@@]3(CC[C@H]2C)[C@@H](C)[C@@H]1O (stereo partly specified) | 0.125 (≈ 0.194 µM) | 0.125 (≈ 0.194 µM) | >4 | 0.25 (≈ 0.387 µM) | 0.125 (≈ 0.194 µM) | >4 | – | 0.125 (≈ 0.194 µM) | 0.0078 (≈ 0.0121 µM) |
| C=C[C@]1(C)C[C@@H](OC(=O)CSc2nc(N)nc3c2ncn3C(=O)Nc2ccccc2)[C@@]2(C)C3C(=O)CC[C@@]3(CC[C@H]2C)[C@@H](C)[C@@H]1O (stereo partly specified) | 0.125 (≈ 0.193 µM) | 0.125 (≈ 0.193 µM) | >4 | 0.0625 (≈ 0.0966 µM) | 0.125 (≈ 0.193 µM) | >4 | 4 | 0.125 (≈ 0.193 µM) | 0.0156 (≈ 0.0241 µM) |
| C=C[C@]1(C)C[C@@H](OC(=O)CSc2nc(N)nc3c2ncn3C(=O)NCc2ccccc2)[C@@]2(C)C3C(=O)CC[C@@]3(CC[C@H]2C)[C@@H](C)[C@@H]1O (stereo partly specified) | 0.0312 (≈ 0.0473 µM) | 0.0312 (≈ 0.0473 µM) | >4 | 0.0625 (≈ 0.0946 µM) | 0.0625 (≈ 0.0946 µM) | >4 | – | 0.0625 (≈ 0.0946 µM) | < 0.0078 |
| C=C[C@]1(C)C[C@@H](OC(=O)CSc2nc(N)nc3c2ncn3C(=O)NCc2ccc(OC)cc2)[C@@]2(C)C3C(=O)CC[C@@]3(CC[C@H]2C)[C@@H](C)[C@@H]1O (stereo partly specified) | 0.125 (≈ 0.181 µM) | 0.0625 (≈ 0.0905 µM) | >4 | 0.0625 (≈ 0.0905 µM) | 0.0625 (≈ 0.0905 µM) | >4 | – | 0.0312 (≈ 0.0452 µM) | < 0.0312 |
| C=C[C@]1(C)C[C@@H](OC(=O)CSc2nc(N)nc3c2ncn3C(=O)Nc2cccc(F)c2)[C@@]2(C)C3C(=O)CC[C@@]3(CC[C@H]2C)[C@@H](C)[C@@H]1O (stereo partly specified) | 0.25 (≈ 0.376 µM) | 0.25 (≈ 0.376 µM) | >4 | 0.25 (≈ 0.376 µM) | 0.0625 (≈ 0.094 µM) | >4 | – | 0.125 (≈ 0.188 µM) | 0.0156 (≈ 0.0235 µM) |
| C=C[C@]1(C)C[C@@H](OC(=O)CSc2nc(N)nc3c2ncn3C(=O)Nc2ccc(C(C)=O)cc2)[C@@]2(C)C3C(=O)CC[C@@]3(CC[C@H]2C)[C@@H](C)[C@@H]1O (stereo partly specified) | 0.062 (≈ 0.09 µM) | 0.0625 (≈ 0.0907 µM) | >4 | 0.125 (≈ 0.181 µM) | 0.125 (≈ 0.181 µM) | >4 | 4 | 0.125 (≈ 0.181 µM) | 0.0156 (≈ 0.0226 µM) |
| C=C[C@]1(C)C[C@@H](OC(=O)CSc2nc(NC(=O)CN3CCC(O)CC3)nc3[nH]cnc23)[C@@]2(C)C3C(=O)CC[C@@]3(CC[C@H]2C)[C@@H](C)[C@@H]1O (stereo partly specified) | 16 (≈ 23.9 µM) | 16 (≈ 23.9 µM) | >4 | 32 (≈ 47.8 µM) | 16 (≈ 23.9 µM) | >4 | – | 2 (≈ 2.99 µM) | 2 (≈ 2.99 µM) |
| C=C[C@]1(C)C[C@@H](OC(=O)CSc2nc(NC(=O)CN3CCCCC3)nc3[nH]cnc23)[C@@]2(C)C3C(=O)CC[C@@]3(CC[C@H]2C)[C@@H](C)[C@@H]1O (stereo partly specified) | 0.0625 (≈ 0.0957 µM) | 0.125 (≈ 0.191 µM) | >4 | 0.125 (≈ 0.191 µM) | 0.25 (≈ 0.383 µM) | >4 | – | 0.5 (≈ 0.766 µM) | 0.5 (≈ 0.766 µM) |
| C=C[C@]1(C)C[C@@H](OC(=O)CSc2nc(N)nc3c2ncn3C(=O)NCCc2ccccc2)[C@@]2(C)C3C(=O)CC[C@@]3(CC[C@H]2C)[C@@H](C)[C@@H]1O (stereo partly specified) | – | – | – | – | – | – | – | – | < 0.0078 |
